In brackets after ≈: the same amount, converted by molar mass. Activity calls are given as the source filed them. Unless noted, no cut-off for these calls is given here.
Columns and labels:
Cryptococcus neoformans = assay: Antifungal activity against Cryptococcus neoformans ATCC 90113 by CLSI method; type: functional, organism-based
Candida albicans = assay: Antifungal activity against Candida albicans ATCC 90028 by CLSI method; type: functional, organism-based
Aspergillus fumigatus = assay: Antifungal activity against Aspergillus fumigatus ATCC 204305 by CLSI method; type: functional, organism-based
[1] = tested on: Mycobacterium intracellulare; assay: Antibacterial activity against Mycobacterium intracellulare ATCC 23068 by alamar blue assay; type: functional, organism-based
Staphylococcus aureus [2] = assay: Antibacterial activity against methicillin-resistant Staphylococcus aureus ATCC 33591 by CLSI method; type: functional, organism-based
Staphylococcus aureus [3] = assay: Antibacterial activity against Staphylococcus aureus ATCC 29213 by CLSI method; type: functional, organism-based
Vero = assay: Cytotoxicity against african green monkey Vero cells up to 4.6 ug/ml after 48 hrs by neutral red assay; type: cell-based; details: chlorocebus sabaeus
Leishmania donovani [4] = assay: Antileishmanial activity against axenic amastigote of Leishmania donovani after 72 hrs by alamar blue assay; type: functional, organism-based
Leishmania donovani [5] = assay: Antileishmanial activity against promastigote of Leishmania donovani after 72 hrs by alamar blue assay; type: functional, organism-based; details: for IC50: read-out: IC50
[6] = Staphylococcus aureus, ATCC 33591
[7] = Staphylococcus aureus, ATCC 33591, read-out: IC50
[8] = Leishmania donovani, 72 h, read-out: IC50

| Compound | IC50 (Cryptococcus neoformans) | MFC (Cryptococcus neoformans) | MIC (Cryptococcus neoformans) | Activity (Candida albicans) | Activity (Aspergillus fumigatus) | IC50 [1] | MBC [1] | MIC [1] | MBC (Staphylococcus aureus [2]) | MIC (Staphylococcus aureus [2]; [6]) | IC50 (Staphylococcus aureus [2]; [7]) | IC50 (Staphylococcus aureus [3]) | MBC (Staphylococcus aureus [3]) | MIC (Staphylococcus aureus [3]) | Activity (Vero) | IC90 (Leishmania donovani [4]; Leishmania donovani, 72 h) | IC50 (Leishmania donovani [4]; [8]) | IC90 (Leishmania donovani [5]; Leishmania donovani, 72 h) | IC50 (Leishmania donovani [5]; Leishmania donovani, 72 h) | other results |
| --- | --- | --- | --- | --- | --- | --- | --- | --- | --- | --- | --- | --- | --- | --- | --- | --- | --- | --- | --- | --- |
| Oc1ccc(C(c2c[nH]c3ccccc23)c2c[nH]c3ccccc23)cc1 | 18.9 µM | 59.2 µM (≈ 20 µg/mL) | 29.6 µM (≈ 10 µg/mL) | inactive | inactive | Not Active | inactive | inactive | inactive | 59.2 µM (≈ 20 µg/mL) | 17.8 µM | 10.5 µM | inactive | 29.6 µM (≈ 10 µg/mL) | Non-toxic | 88.9 µM | 51.3 µM | 106 µM | 92.8 µM | – |
| Fc1cc(F)cc(C(c2c[nH]c3ccccc23)c2c[nH]c3ccccc23)c1 | 2.32 µM | 3.49 µM (≈ 1.25 µg/mL) | 3.49 µM (≈ 1.25 µg/mL) | inactive | inactive | Not Active | inactive | inactive | inactive | 6.98 µM (≈ 2.5 µg/mL) | 2.93 µM | 2.32 µM | inactive | 3.49 µM (≈ 1.25 µg/mL) | Non-toxic | 95.6 µM | 67.4 µM | 19.8 µM | 8.35 µM | – |
| c1csc(C(c2c[nH]c3ccccc23)c2c[nH]c3ccccc23)c1 | 18.9 µM | 30.5 µM (≈ 10 µg/mL) | 30.5 µM (≈ 10 µg/mL) | inactive | inactive | Not Active | inactive | inactive | inactive | – | 13.5 µM | 9.15 µM | inactive | 15.2 µM (≈ 4.99 µg/mL) | Non-toxic | 101 µM | 70.2 µM | – | 100 µM | MIC (Staphylococcus aureus [2]): inactive; IC90 (Leishmania donovani [5]): inactive |
| O=[N+]([O-])c1ccc(C(c2c[nH]c3ccccc23)c2c[nH]c3ccccc23)o1 | 29.6 µM | inactive | inactive | inactive | inactive | – | inactive | inactive | inactive | 14 µM (≈ 5 µg/mL) | 8.54 µM | 12 µM | 28 µM (≈ 10 µg/mL) | 28 µM (≈ 10 µg/mL) | Non-toxic | 41.8 µM | 31.5 µM | 12.2 µM | 6.61 µM | IC50 ([1]; Mycobacterium intracellulare, ATCC 23068, read-out: IC50): 52.9 µM |
| COc1ccc(C(c2c[nH]c3ccccc23)c2c[nH]c3ccccc23)cc1O | 16.9 µM | 27.2 µM (≈ 10 µg/mL) | 27.2 µM (≈ 10 µg/mL) | inactive | inactive | Not Active | inactive | inactive | inactive | 27.2 µM (≈ 10 µg/mL) | 12.3 µM | 7.47 µM | inactive | 13.6 µM (≈ 5.01 µg/mL) | Non-toxic | 79.5 µM | 42.2 µM | 95.6 µM | 85 µM | – |
| Brc1cccc(C(c2c[nH]c3ccccc23)c2c[nH]c3ccccc23)c1 | 5.33 µM | 12.5 µM (≈ 5.02 µg/mL) | 12.5 µM (≈ 5.02 µg/mL) | inactive | inactive | Not Active | inactive | inactive | inactive | 12.5 µM (≈ 5.02 µg/mL) | 6.3 µM | 3.75 µM | inactive | 12.5 µM (≈ 5.02 µg/mL) | Non-toxic | 75.6 µM | 35.9 µM | 59.4 µM | 27.4 µM | – |
| Oc1ccc(C(c2c[nH]c3ccc(I)cc23)c2c[nH]c3ccc(I)cc23)cc1 | 1.8 µM | – | – | inactive | inactive | Not Active | inactive | inactive | – | 2.12 µM (≈ 1.25 µg/mL) | 1.15 µM | 2.1 µM | 33.9 µM (≈ 20 µg/mL) | 4.24 µM (≈ 2.5 µg/mL) | Non-toxic | 52.5 µM | 39.8 µM | 53.2 µM | 19.1 µM | MBC (Staphylococcus aureus [2]; [6]): 10 µM (≈ 5.9 µg/mL) |
| Brc1ccc(C(c2c[nH]c3ccc(I)cc23)c2c[nH]c3ccc(I)cc23)cc1 | 5.58 µM | 30.7 µM (≈ 20 µg/mL) | 30.7 µM (≈ 20 µg/mL) | inactive | inactive | – | – | – | – | – | – | – | – | – | Non-toxic | 46.6 µM | 13.1 µM | 8.47 µM | 4.49 µM | – |
| COc1ccc(C(c2c[nH]c3ccccc23)c2c[nH]c3ccccc23)cc1 | 35.5 µM | inactive | inactive | inactive | inactive | Not Active | inactive | inactive | inactive | – | – | 9.06 µM | inactive | inactive | Non-toxic | – | – | 106 µM | 89 µM | IC50 (Staphylococcus aureus [2]): Not Active; MIC (Staphylococcus aureus [2]): inactive; IC50 (Leishmania donovani [4]): Not Active; IC90 (Leishmania donovani [4]): inactive |
| Fc1ccc(C(c2c[nH]c3ccccc23)c2c[nH]c3ccccc23)cc1Br | 1.94 µM | 5.98 µM (≈ 2.51 µg/mL) | 2.99 µM (≈ 1.25 µg/mL) | inactive | inactive | Not Active | inactive | inactive | inactive | 23.9 µM (≈ 10 µg/mL) | 9.23 µM | 3.76 µM | inactive | 5.98 µM (≈ 2.51 µg/mL) | Non-toxic | 74.5 µM | 47.5 µM | 22.9 µM | 17.6 µM | – |
| COc1cc(C(c2c[nH]c3ccc(I)cc23)c2c[nH]c3ccc(I)cc23)ccc1O | 3.92 µM | inactive | 32.3 µM (≈ 20 µg/mL) | inactive | inactive | Not Active | inactive | inactive | inactive | 4.03 µM (≈ 2.5 µg/mL) | 2.11 µM | 1.89 µM | inactive | 4.03 µM (≈ 2.5 µg/mL) | Non-toxic | 47.2 µM | 31.6 µM | 37.9 µM | 20.8 µM | – |
